Measured values from patent US12428455B2, “Dominant negative CEBPB and CEBPD proteins and methods of use for decreasing viability of neoplastic cells” (The Trustees of Columbia University in the City of New York, priority 2018, dated 2025).
No end group written: not given here.

Assays:
Format in all cases: cell-based
T98G glioblastoma cells = assay: Cell number (growth and survival) after peptide treatment, T98G; settings: for growth and survival of T98G cells, time course: 10 μM or 20 μM for 1-6 days; for growth and survival of T98G cells, time course / number of T98G cells / morphology, growth and survival of T98G cells: stock without BSA; for number of T98G cells: 6-7 days; for number of T98G cells / effect of BSA in stock buffer on potency in suppressing growth and survival: 0 μM to 50 μM; for morphology, growth and survival of T98G cells: 5 days, 10 or 20 μM (CP-DN-CEBPB), 3, 10, 20 or 50 μM (CP-DN-CEBPD); for effect of BSA in stock buffer on potency in suppressing growth and survival: 6 days, BSA 3 mg/ml in stock, 0.6 mg/ml in medium
Protocol: Replicate T98G glioblastoma cell cultures were exposed to dominant negative (DN) synthetic peptides having an N-terminal penetratin sequence followed by a CEBPB or CEBPD native leucine zipper sequence (CP-DN-CEBPB or CP-DN-CEBPD, respectively) for 5 days at final concentrations of 10 μM or 20 μM (CP-DN-CEBPB) or 3 μM, 10 μM, 20 μM or 50 μM (CP-DN-CEBPD). Stock solutions of the peptides were prepared in buffer without added bovine serum albumin (BSA).
Replicate T98G glioblastoma cell cultures were exposed to CP-DN-CEBPB or CP-DN-CEBPD, for 6-7 days at doses of 0 μM to 50 μM. […] Stock solutions of the peptides were prepared in buffer without added bovine serum albumin (BSA).
Replicate T98G cell cultures were exposed to CP-DN-CEBPB or CP-DN-CEBPD peptides (10 μM or 20 μM) for 1, 2, 3, 4, 5, or 6 days. […] Values shown in FIG. 7A and FIG. 7B represent means from 3 replicate cultures. Stock solutions of the peptides were prepared in buffer without added bovine serum albumin (BSA).
Four replicate cultures of T98G cells were treated for 6 days with a cell penetrating dominant negative CEBPB (CP-DN-CEBPB; FIG. 8A) or a cell penetrating dominant negative CEBPD (CP-DN-CEBPD; FIG. 8B) at doses of 0 μM to 50 μM, with or without bovine serum albumin (BSA). […] Concentration of BSA in the stock solution, when present, was 3 mg/ml. The final concentration of BSA in the cell culture medium was 0.6 mg/ml. Values represent means of determinations made on 4 replicate cultures for each condition.
Replicate cultures of HCT116, MDA-MB 231, MCF7, and T98G cells were exposed to a 50/50 by concentration mixture of CP-DN-CEBPB and CP-DN-CEBPD for 6 days at doses of 0 μM to 50 μM. Stock solutions of the peptides were prepared in buffer without added bovine serum albumin (BSA).
Replicate cultures of T98G, HCT116, MDA-MB 231, and MCF7 cells were exposed to CP-DN-CEBPB, CP-DN-CEBPD, or a CP-DN-CEBPD in which heptad repeat leucine residues were mutated to glycine residues for 6 days at doses of 0 μM to 50 μM. Stock solutions of the peptides were prepared in buffer without added bovine serum albumin (BSA).

human astrocytes = assay: Morphology after peptide treatment, astrocytes; settings: 6 days, 0 μM or 50 μM; stock without BSA
Protocol: Replicate cultures of human astrocytes were exposed to CP-DN-CEBPB or CP-DN-CEBPD for 6 days at final concentrations of 0 μM or 50 μM. […] Stock solutions of the peptides were prepared in buffer without added bovine serum albumin (BSA).

MCF7 cells = assay: Apoptotic nuclei, propidium iodide flow cytometry, MCF7; settings: 20 μM, 3 days, vs untreated cells
Protocol: (§1) MDA-MB-231, MCF7, HCT116 and T98G cancer cell lines were treated for 3 days with 20 μM CP-dn-CEBPB and CP-dn-CEBPD peptides from stock solutions prepared without additives. Cultures were stained with propidium iodide and assessed for proportion of cells with apoptotic nuclei by flow cytometry.

T98G cells = assay: Apoptotic nuclei, propidium iodide flow cytometry, T98G; settings: 20 μM, 3 days, vs untreated cells
Protocol: as §1

[1] = system: MDA-MB-231, MCF7, HCT116 and T98G cancer cell lines; assay: PI-Annexin staining and flow cytometry, cancer cell lines; settings: 20 μM, 3 days
Protocol: MDA-MB-231, MCF7, HCT116 and T98G cancer cell lines and HIEC-6 non-cancer cell lines were treated for 3 days with 20 μM CP-dn-CEBPB and CP-dn-CEBPD peptides from stock solutions prepared without additives, followed by PI-Annexin staining and flow cytometry. Numbers in upper and lower quadrants indicate % of cells in early (lower) or late (upper) apoptotic phase.

[2] = system: T98G, MDA-MB 231, and MCF7 cells; assay: Combination with paclitaxel, overall conclusion; settings: co-treatment, cell number or colony number
Protocol: Replicate cultures of T98G, MDA-MB 231, and MCF7 cells were treated with 1 nM or 5 nM paclitaxel and 3 μM, 10 μM, or 20 μM CP-dn-CEBPB and CP-dn-CEBPD peptides, maintained for 6 days, and then assessed for cell number. The bar graphs of FIGS. 26A (T98G, CP-dn-CEBPB), 26C (T98G, CP-dn-CEBPBD, 26E (MDA-MB-231, CP-dn-CEBPBD), 26G (MDA-MB-231, CP-dn-CEBPD), 26I (MCF7, CP-dn-CEBPBB), and 26K (MCF7, CP-dn-CEBPBD) show relative cell numbers for each condition as compared to untreated controls. The line graphs of FIGS. 26B (T98G, CP-dn-CEBPB), 26D (T98G, CP-dn-CEBPBD), 26F (MDA-MB-231, CP-dn-CEBPB), 26H (MDA-MB-231, CP-dn-CEBPD), 26J (MCF7, CP-dn-CEBPB), and 26L (MCF7 CP-dn-CEBPBD) show the response as normalized in each case so that 100 represents the relative number of surviving cells that received the indicated level of paclitaxel, but no peptide treatment. Calculated combination indices (CI) were as follows: MCF7: CI=0.41±0.04 for CP-dn-CEBPB; 0.44±0.04 for CP-dn-CEBPD; MDA-MB-231: 0.74±0.03 for CP-dn-CEBPB; 0.74±0.05 for CP-dn-CEBPD; T98G: CI=0.84±0.06 for CP-dn-CEBPB and 0.75±0.07 for CP-dn-CEBPD.
Replicate cultures of MDA-MB-231 cells in soft agar were treated with 0.1 nM or 0.5 nM 50 nM or 500 nM CP-dn-CEBPB and CP-dn-CEBPD peptides, maintained for 12 days, and then assessed for colony number. […]

Sequence	growth and survival of T98G cells, time course (T98G glioblastoma cells)	number of T98G cells (T98G glioblastoma cells)	morphology, growth and survival of T98G cells (T98G glioblastoma cells)	effect of BSA in stock buffer on potency in suppressing growth and survival (T98G glioblastoma cells)	morphology of human astrocytes (human astrocytes)	proportion of cells with apoptotic nuclei (MCF7 cells)	proportion of cells with apoptotic nuclei (T98G cells)	apoptotic death (early or late apoptotic phase) [1]	kind of combined effect with paclitaxel [2]
RQIKIWFQNRRMKWKKLETQHKVLELTAENERLQKKVEQLSRELSTLRNLFKQL [CP-DN-CEBPB]	decreased as compared to untreated control cells	dose-responsively decreased	dose-responsively affected the morphology, growth and survival	greatly increased the potency	did not affect the morphology	increased apoptotic cell death	increased apoptotic cell death	caused apoptotic death in multiple cancer cell lines	synergistic effect
RQIKIWFQNRRMKWKKLVELSAENEKLHQRVEQLTRDLAGLRQFFK [CP-DN-CEBPD]	decreased as compared to untreated control cells	dose-responsively decreased	dose-responsively affected the morphology, growth and survival	greatly increased the potency	did not affect the morphology	increased apoptotic cell death	increased apoptotic cell death	caused apoptotic death in multiple cancer cell lines	synergistic effect
